Like-named read-outs stand apart in the source and are kept apart here.
Columns and labels:
[1] = molecular target: T1, baculovirus-expressed ALK (Homo sapiens, UniProt Q9UM73); test: ALK Kinase Assay (ELISA-type, time-resolved fluorescence); format: biochemical; settings: 1 μM ATP (Km level)
T1 construct: host or cells: baculovirus expression system
In short: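 Wells were coated with phospholipase C-γ at 10 μg/mL in Tris-buffered saline. Adding 30 ng/ml enzyme started the reaction, which ran at 37° C for 15 minutes before Eu-N1 PT66 antibody detection. Percent inhibition versus log10 concentration gave IC50 by variable-slope fit.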

[2] = molecular target: T2, c-Met (cytoplasmic domain) (Homo sapiens, UniProt P08581); test: c-Met Kinase Assay (same methods as for ALK, with modifications); format: biochemical; settings: 1 μM ATP (Km level)
T2 construct: 10 ng/mL c-Met (cytoplasmic domain, Invitrogen Corporation #PV3143); purchased Invitrogen Corporation PV3143
In short: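 Steps: coat wells with PLC-γ (10 μg/mL, Tris-buffered saline); add 10 ng/mL c-Met cytoplasmic domain to initiate; incubate 15 min, 37° C; detect phosphoproduct via Eu-N1 PT66 antibody.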

[3] = ALK kinase inhibition, read-out: ALK Activity
[4] = c-Met kinase inhibition, read-out: cMet Activity
[5] = read-out: ALK Activity (ALK Kinase Inhibition, IC50)
[6] = read-out: cMet Activity (c-Met Kinase Inhibition, IC50)

T2 sequence (P08581 956-1390 limits assumed): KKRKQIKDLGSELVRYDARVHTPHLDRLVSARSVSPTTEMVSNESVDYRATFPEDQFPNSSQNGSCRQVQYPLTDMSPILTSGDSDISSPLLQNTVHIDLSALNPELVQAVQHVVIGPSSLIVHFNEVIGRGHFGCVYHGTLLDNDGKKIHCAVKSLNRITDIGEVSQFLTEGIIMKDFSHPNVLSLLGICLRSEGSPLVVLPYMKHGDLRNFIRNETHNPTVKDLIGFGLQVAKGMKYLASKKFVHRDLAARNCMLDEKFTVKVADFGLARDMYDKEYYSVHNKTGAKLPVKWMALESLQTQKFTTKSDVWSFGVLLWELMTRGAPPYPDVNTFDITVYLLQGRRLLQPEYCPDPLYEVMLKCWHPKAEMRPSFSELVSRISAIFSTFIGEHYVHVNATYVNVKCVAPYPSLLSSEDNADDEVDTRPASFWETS
T1 sequence (Q9UM73 19-1620): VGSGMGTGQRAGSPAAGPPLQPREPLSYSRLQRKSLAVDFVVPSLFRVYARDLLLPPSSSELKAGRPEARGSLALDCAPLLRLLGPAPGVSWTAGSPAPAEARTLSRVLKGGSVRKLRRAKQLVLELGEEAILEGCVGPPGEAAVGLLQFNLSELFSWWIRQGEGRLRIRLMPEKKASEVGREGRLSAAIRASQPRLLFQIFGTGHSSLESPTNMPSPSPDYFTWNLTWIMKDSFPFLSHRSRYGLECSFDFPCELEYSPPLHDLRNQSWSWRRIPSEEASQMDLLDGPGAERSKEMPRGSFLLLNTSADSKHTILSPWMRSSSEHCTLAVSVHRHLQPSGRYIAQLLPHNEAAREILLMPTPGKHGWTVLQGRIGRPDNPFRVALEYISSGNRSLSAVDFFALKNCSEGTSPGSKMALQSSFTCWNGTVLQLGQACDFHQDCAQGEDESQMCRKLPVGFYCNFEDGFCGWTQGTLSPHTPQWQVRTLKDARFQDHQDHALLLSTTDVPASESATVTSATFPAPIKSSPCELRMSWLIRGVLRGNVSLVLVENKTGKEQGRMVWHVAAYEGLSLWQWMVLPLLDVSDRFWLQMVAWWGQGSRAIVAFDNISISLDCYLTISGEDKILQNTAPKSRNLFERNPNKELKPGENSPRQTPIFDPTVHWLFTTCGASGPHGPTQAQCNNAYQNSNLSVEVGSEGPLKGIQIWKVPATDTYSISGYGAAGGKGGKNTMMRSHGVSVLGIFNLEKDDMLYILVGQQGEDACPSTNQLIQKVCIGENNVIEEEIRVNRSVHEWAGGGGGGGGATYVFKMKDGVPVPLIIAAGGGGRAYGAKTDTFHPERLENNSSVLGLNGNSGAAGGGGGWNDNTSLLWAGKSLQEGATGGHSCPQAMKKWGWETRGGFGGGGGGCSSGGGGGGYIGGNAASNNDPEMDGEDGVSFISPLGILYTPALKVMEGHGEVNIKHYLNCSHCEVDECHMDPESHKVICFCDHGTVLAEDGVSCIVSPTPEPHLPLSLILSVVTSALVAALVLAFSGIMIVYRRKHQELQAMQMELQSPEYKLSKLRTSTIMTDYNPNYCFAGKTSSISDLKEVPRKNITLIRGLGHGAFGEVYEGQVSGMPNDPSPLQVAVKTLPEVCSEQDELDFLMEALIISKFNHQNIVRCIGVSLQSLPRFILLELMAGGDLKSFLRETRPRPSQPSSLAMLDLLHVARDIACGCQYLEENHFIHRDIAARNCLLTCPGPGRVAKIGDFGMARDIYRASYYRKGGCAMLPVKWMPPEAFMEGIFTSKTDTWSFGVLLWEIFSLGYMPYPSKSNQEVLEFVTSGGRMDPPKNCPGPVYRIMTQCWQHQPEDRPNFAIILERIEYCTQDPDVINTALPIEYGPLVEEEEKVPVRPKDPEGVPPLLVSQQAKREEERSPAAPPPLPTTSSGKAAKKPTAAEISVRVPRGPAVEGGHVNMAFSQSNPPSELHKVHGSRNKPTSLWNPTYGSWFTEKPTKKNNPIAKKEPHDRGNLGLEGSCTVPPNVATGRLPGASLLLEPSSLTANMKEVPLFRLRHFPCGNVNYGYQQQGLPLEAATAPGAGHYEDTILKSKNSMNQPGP

SMILES | IC50 [1, 3] [nM] | IC50 [2, 4] [nM] | IC50 [1, 5] [nM] | IC50 [2, 6] [nM]
CN1CCN(CCO)Cc2ccc(Nc3ncc(Cl)c(N[C@@H]4CCCC[C@H]4NS(C)(=O)=O)n3)cc21 [Example 478, N-((1R,2R)-2-{5-Chloro-2-[4-(2-hydroxy-ethyl)-1-methyl-2,3,4,5-tetrahydro-1H-benzo[e][1,4]diazepin-8-ylamino]-pyrimidin-4-ylamino}-cyclohexyl)-methanesulfonamide] | < 100 | 1000 to 10000 | – | –
CN1CCN(CC2CC2)Cc2ccc(Nc3ncc(Cl)c(N[C@@H]4CCCC[C@H]4NS(C)(=O)=O)n3)cc21 [Example 479, N-{(1R,2R)-2-[5-Chloro-2-(4-cyclopropylmethyl-1-methyl-2,3,4,5-tetrahydro-1H-benzo[e][1,4]diazepin-8-ylamino)-pyrimidin-4-ylamino]-cyclohexyl}-methanesulfonamide] | < 100 | 1000 to 10000 | – | –
C#CCN1CCN(C)c2cc(Nc3ncc(Cl)c(N[C@@H]4CCCC[C@H]4NS(C)(=O)=O)n3)ccc2C1 [Example 480, N-{(1R,2R)-2-[5-Chloro-2-(1-methyl-4-prop-2-ynyl-2,3,4,5-tetrahydro-1H-benzo[e][1,4]diazepin-8-ylamino)-pyrimidin-4-ylamino]-cyclohexyl}-methanesulfonamide] | < 100 | 1000 to 10000 | – | –
CN(C)C(=O)N1CCN(C)c2cc(Nc3ncc(Cl)c(N[C@@H]4CCCC[C@H]4NS(C)(=O)=O)n3)ccc2C1 [Example 481, 8-[5-Chloro-4-((1R,2R)-2-methanesulfonylamino-cyclohexylamino)-pyrimidin-2-ylamino]-1-methyl-1,2,3,5-tetrahydro-benzo[e][1,4]diazepine-4-carboxylic acid dimethylamide] | < 100 | 1000 to 10000 | – | –
CN1CCN(C(=O)n2ccnc2)Cc2ccc(Nc3ncc(Cl)c(N[C@@H]4CCCC[C@H]4NS(C)(=O)=O)n3)cc21 [Example 482, N-((1R,2R)-2-{5-Chloro-2-[4-(imidazole-1-carbonyl)-1-methyl-2,3,4,5-tetrahydro-1H-benzo[e][1,4]diazepin-8-ylamino]-pyrimidin-4-ylamino}-cyclohexyl)-methanesulfonamide] | < 100 | 100 to 1000 | – | –
CNC(=O)c1ccccc1Nc1nc(Nc2ccc3c(c2)N(C)CCN(S(C)(=O)=O)C3)ncc1Cl [Example 483, 2-[5-Chloro-2-(4-methanesulfonyl-1-methyl-2,3,4,5-tetrahydro-1H-benzo[e][1,4]diazepin-8-ylamino)-pyrimidin-4-ylamino]-N-methyl-benzamide] | < 100 | < 100 | – | –
CNC(=O)c1ccccc1Nc1nc(Nc2ccc3c(c2)N(C)CCN(CCOC)C3)ncc1Cl [Example 484, 2-{5-Chloro-2-[4-(2-methoxy-ethyl)-1-methyl-2,3,4,5-tetrahydro-1H-benzo[e][1,4]diazepin-8-ylamino]-pyrimidin-4-ylamino}-N-methyl-benzamide] | < 100 | < 100 | – | –
CNC(=O)c1ccccc1Nc1nc(Nc2ccc3c(c2)N(C)CCN(CCO)C3)ncc1Cl [Example 485, 2-{5-Chloro-2-[4-(2-hydroxy-ethyl)-1-methyl-2,3,4,5-tetrahydro-1H-benzo[e][1,4]diazepin-8-ylamino]-pyrimidin-4-ylamino}-N-methyl-benzamide] | < 100 | < 100 | – | –
CNC(=O)c1ccccc1Nc1nc(Nc2ccc3c(c2)N(C)CCN(C(=O)n2ccnc2)C3)ncc1Cl [Example 486, 2-{5-Chloro-2-[4-(imidazole-1-carbonyl)-1-methyl-2,3,4,5-tetrahydro-1H-benzo[e][1,4]diazepin-8-ylamino]-pyrimidin-4-ylamino}-N-methyl-benzamide] | < 100 | < 100 | – | –
C#CCN1CCN(C)c2cc(Nc3ncc(Cl)c(Nc4ccccc4C(=O)NC)n3)ccc2C1 [Example 487, 2-[5-Chloro-2-(1-methyl-4-prop-2-ynyl-2,3,4,5-tetrahydro-1H-benzo[e][1,4]diazepin-8-ylamino)-pyrimidin-4-ylamino]-N-methyl-benzamide] | < 100 | < 100 | – | –
C#CCN1CCN(C)c2cc(Nc3ncc(Cl)c(Nc4ccccc4C(=O)N(C)CC#C)n3)ccc2C1 [Example 488, 2-[5-Chloro-2-(1-methyl-4-prop-2-ynyl-2,3,4,5-tetrahydro-1H-benzo[e][1,4]diazepin-8-ylamino)-pyrimidin-4-ylamino]-N-methyl-N-prop-2-ynyl-benzamide] | < 100 | < 100 | – | –
CNC(=O)c1ccccc1Nc1nc(Nc2ccc3c(c2)N(C)CCN(C(=O)N(C)C)C3)ncc1Cl [Example 489, 8-[5-Chloro-4-(2-methylcarbamoyl-phenylamino)-pyrimidin-2-ylamino]-1-methyl-1,2,3,5-tetrahydro-benzo[e][1,4]diazepine-4-carboxylic acid dimethylamide] | < 100 | < 100 | – | –
COCCN1CCN(C)c2cc(Nc3ncc(Cl)c(N[C@@H]4CCCC[C@H]4NS(C)(=O)=O)n3)c(OC)cc2C1 [Example 490, N-((1R,2R)-2-{5-Chloro-2-[7-methoxy-4-(2-methoxy-ethyl)-1-methyl-2,3,4,5-tetrahydro-1H-benzo[e][1,4]diazepin-8-ylamino]-pyrimidin-4-ylamino}-cyclohexyl)-methanesulfonamide] | < 100 | > 10000 | – | –
COCCN1CCN(C)c2cc(Nc3ncc(Cl)c(NC4C5CCC(C5)C4C(N)=O)n3)c(OC)cc2C1 (stereo not drawn) [Example 491, (2-exo,3-exo)-3-{5-Chloro-2-[7-methoxy-4-(2-methoxy-ethyl)-1-methyl-2,3,4,5-tetrahydro-1H-benzo[e][1,4]diazepin-8-ylamino]-pyrimidin-4-ylamino}-bicyclo[2.2.1]heptane-2-carboxylic acid amide] | < 100 | > 10000 | – | –
COc1cc2c(cc1Nc1ncc(Cl)c(N[C@@H]3CCCC[C@H]3NS(C)(=O)=O)n1)N(C)CCN(C[C@@H](O)C(F)(F)F)C2 [Example 492, N-((1R,2R)-2-{5-Chloro-2-[7-methoxy-1-methyl-4-((R)-3,3,3-trifluoro-2-hydroxy-propyl)-2,3,4,5-tetrahydro-1H-benzo[e][1,4]diazepin-8-ylamino]-pyrimidin-4-ylamino}-cyclohexyl)-methanesulfonamide] | < 100 | > 10000 | – | –
COc1cc2c(cc1Nc1ncc(Cl)c(Nc3ccc(N4CCOCC4)cc3OC)n1)N(C)CCNC2 [Example 493, 5-Chloro-N*2*-(7-methoxy-1-methyl-2,3,4,5-tetrahydro-1H-benzo[e][1,4]diazepin-8-yl)-N*4*-(2-methoxy-4-morpholin-4-yl-phenyl)-pyrimidine-2,4-diamine] | < 100 | > 10000 | – | –
COc1cc2c(cc1Nc1ncc(Cl)c(Nc3ccc(N4CCOCC4)cc3OC)n1)N(C)CCN(S(C)(=O)=O)C2 [Example 494, 5-Chloro-N*2*-(4-methanesulfonyl-7-methoxy-1-methyl-2,3,4,5-tetrahydro-1H-benzo[e][1,4]diazepin-8-yl)-N*4*-(2-methoxy-4-morpholin-4-yl-phenyl)-pyrimidine-2,4-diamine] | < 100 | > 10000 | – | –
COCCN1CCN(C)c2cc(Nc3ncc(Cl)c(Nc4ccc(N5CCOCC5)cc4OC)n3)c(OC)cc2C1 [Example 495, 5-Chloro-N*2*-[7-methoxy-4-(2-methoxy-ethyl)-1-methyl-2,3,4,5-tetrahydro-1H-benzo[e][1,4]diazepin-8-yl]-N*4*-(2-methoxy-4-morpholin-4-yl-phenyl)-pyrimidine-2,4-diamine] | < 100 | > 10000 | – | –
COc1cc2c(cc1Nc1ncc(Cl)c(Nc3ccc(N4CCOCC4)cc3OC)n1)N(C)CCN(C[C@@H](O)C(F)(F)F)C2 [Example 496, (R)-3-{8-[5-Chloro-4-(2-methoxy-4-morpholin-4-yl-phenylamino)-pyrimidin-2-ylamino]-7-methoxy-1-methyl-1,2,3,5-tetrahydro-benzo[e][1,4]diazepin-4-yl}-1,1,1-trifluoro-propan-2-ol] | < 100 | > 10000 | – | –
CN1CCNCc2cc(OCC(F)(F)F)c(Nc3ncc(Cl)c(N[C@@H]4CCCC[C@H]4NS(C)(=O)=O)n3)cc21 [Example 497, N-((1R,2R)-2-{5-Chloro-2-[1-methyl-7-(2,2,2-trifluoro-ethoxy)-2,3,4,5-tetrahydro-1H-benzo[e][1,4]diazepin-8-ylamino]-pyrimidin-4-ylamino}-cyclohexyl)-methanesulfonamide] | 100 to 1000 | 1000 to 10000 | – | –
CN1CCN(C[C@@H](O)C(F)(F)F)Cc2cc(OCC(F)(F)F)c(Nc3ncc(Cl)c(N[C@@H]4CCCC[C@H]4NS(C)(=O)=O)n3)cc21 [Example 498, N-((1R,2R)-2-{5-Chloro-2-[1-methyl-7-(2,2,2-trifluoro-ethoxy)-4-((R)-3,3,3-trifluoro-2-hydroxy-propyl)-2,3,4,5-tetrahydro-1H-benzo[e][1,4]diazepin-8-ylamino]-pyrimidin-4-ylamino}-cyclohexyl)-methanesulfonamide] | – | – | 100 to 1000 | > 10000
CC(C)N1CCNC(=O)c2ccc(Nc3ncc(Cl)c(N[C@@H]4CCCC[C@H]4NS(C)(=O)=O)n3)cc21 [Example 499, N-{(1R,2R)-2-[5-Chloro-2-(1-isopropyl-5-oxo-2,3,4,5-tetrahydro-1H-benzo[e][1,4]diazepin-8-ylamino)-pyrimidin-4-ylamino]-cyclohexyl}-methanesulfonamide] | – | – | 100 to 1000 | 100 to 1000
CNC(=O)c1ccccc1Nc1nc(Nc2ccc3c(c2)OCCCO3)ncc1Cl [Example 511] | – | – | < 100 | < 100

From US8148391B2 (Cephalon, Inc., priority 2006, dated 2012)
